Patent publication US9789187B2, “Stable pharmaceutical composition for atherosclerosis” (Cadila Pharmaceuticals Limited, priority 2009, dated 2017)
Where two headings read alike, the source gives them in different places. Blank lines part the entries; values can stand above or below the compound they belong to.

Tests used:
Urinary thromboxane = Urinary thromboxane levels (antiplatelet activity); assay type: in vivo, human; conditions: group taking aspirin vs group taking MCP
[1] = Randomized controlled study of heart rate over 24 hrs in normal healthy volunteers; assay type: in vivo; conditions: seen at 4.5 hrs; 16 in each group; heart rate measured for 24 hrs
[2] = cited from earlier work
[3] = Clinical trial for efficacy: reduction in sitting systolic and diastolic blood pressure; assay type: in vivo, human; design: Effect on Systolic B.P., Hypertensive / Effect on Systolic B.P., Non hypertensive / Effect on Diastolic B.P., Hypertensive / Effect on Diastolic B.P., Non hypertensive / Effect on Systolic B.P., Diabetics / Effect on Systolic B.P., Non diabetics / Effect on Diastolic B.P., Diabetics / Effect on Diastolic B.P., Non diabetics: unit not given here
Protocol: Reduction in sitting diastolic and sitting systolic blood pressure was measured in a cohort of population who received multi-component pill (n=392) or a pill containing three antihypertensive drugs (n=196).

[4] = Cross over randomized two period pharmacokinetic study, single MCP (test) vs market single ingredient pill (reference)
[5] = human, in vivo
[6] = Randomized double blind controlled study of change in lipid profile (3 months); assay type: in vivo, human; conditions: simvastatin 20 mg daily for 3 months; 198 subjects alone, 406 as multi-component composition
Description: The multi-component pharmaceutical composition included The change in lipid profile as compared to baseline is provided in a table below.

[7] = multi-component pill n=392, hydrochlorothiazide n=199, two drugs n=207,205,209, three drugs n=196
[8] = analyte of the table title after market single ingredient pill (reference)
[9] = analyte of the table title after single MCP (test)
[10] = MCP (test) / single ingredient pill (reference)

SMILES: CC(=O)Oc1ccccc1C(=O)O [Aspirin, acetylsalicylic acid]
change in SGPT by two fold, S. Potassium above 5.5 and increase in serum creatinine by 50% (aspirin 100 mg (n=172) compared with MCP (n=334), daily for three months): marginally higher
All reported Adverse events (human, in vivo, 3 months): 163
Gastritis/dyspepsia (serious adverse leading to discontinuation) (human, in vivo, 3 months): 1.4%
Urinary thromboxane levels (Urinary thromboxane): identical

SMILES: CC(C)NCC(O)COc1ccc(CC(N)=O)cc1 (centres unmarked) [Atenolol]
Peak decrease in heart rate [1]: 5.38

SMILES: COc1ccc([C@@H]2Sc3ccccc3N(CCN(C)C)C(=O)[C@@H]2OC(C)=O)cc1 [Diltiazem]
increase of AUC of simvastatin (in words) ([2]; co-administered drug raises simvastatin AUC): two fold

SMILES: NS(=O)(=O)c1cc2c(cc1Cl)NCNS2(=O)=O [Hydrochlorothiazide]
Effect on Diastolic B.P., Diabetics ([3]; diabetics): 1.5
Effect on Systolic B.P., Diabetics ([3]; diabetics): 3.4
Effect on Diastolic B.P., Hypertensive ([3]; hypertensives): 2.5
Effect on Systolic B.P., Hypertensive ([3]; hypertensives): 3.0
Mean change in sitting diastolic blood pressure [3, 7]: 1.2 mm of Hg
Mean change in sitting systolic blood pressure [3, 7]: 2.2 mm of Hg
Effect on Diastolic B.P., Non diabetics ([3]; nondiabetics): 1.1
Effect on Systolic B.P., Non diabetics ([3]; nondiabetics): 1.6
Effect on Diastolic B.P., Non hypertensive ([3]; nonhypertensives): 0.5
Effect on Systolic B.P., Non hypertensive ([3]; nonhypertensives): 1.8
Dizziness and hypotension (serious adverse leading to discontinuation) (Thiazide n=199, MCP n=392): 3.3%
All reported Adverse events (three month trial, groups of 205 (aspirin, thiazide, simvastatin alone), 412 (multi-component pill)): 161
Ln AUC0-t, Ref. Geo LSM [4, 8]: 621.884 ng·h/mL
Ln AUCo-∞, Ref. Geo LSM [4, 8]: 668.583 ng·h/mL
Ln Cmax, Ref. Geo LSM [4, 8]: 92.388 ng/mL
Ln AUC0-t, Test Geo LSM [4, 9]: 579.174 ng·h/mL
Ln AUCo-∞, Test Geo LSM [4, 9]: 619.693 ng·h/mL
Ln Cmax, Test Geo LSM [4, 9]: 93.437 ng/mL

SMILES: COC(=O)C1=C(C)NC(C)=C(C(=O)OCC(C)C)C1c1ccccc1[N+](=O)[O-] (centres unmarked) [Nisoldipine]
increase of AUC of telmisartan ([2]; co-administered drug raises telmisartan AUC): 132%

Ln AUC0-t, Ratio (T/R) * 100 [5]: 109.98
Ln AUCo-∞, Ratio (T/R) * 100 [5]: 109.09
Ln Cmax, Ratio (T/R) * 100 [5]: 118.51
SMILES: CCOC(=O)[C@H](CCc1ccccc1)N[C@@H](C)C(=O)N1[C@H](C(=O)O)C[C@@H]2CCC[C@@H]21 [Ramipril]
Cough (serious adverse leading to discontinuation) (human, in vivo, 3 months): 1.4%

Ln AUC0-t, Ratio (T/R) * 100 [5]: 105.31
Ln AUCo-∞, Ratio (T/R) * 100 [5]: 105.93
Ln Cmax, Ratio (T/R) * 100 [5]: 117.50
SMILES: C[C@H](N[C@@H](CCc1ccccc1)C(=O)O)C(=O)N1[C@H](C(=O)O)C[C@@H]2CCC[C@@H]21 [Ramiprilat]

Ln AUC0-t, Ratio (T/R) * 100 [4, 10]: 117.54
Ln AUCo-∞, Ratio (T/R) * 100 [4, 10]: 117.82
Ln Cmax, Ratio (T/R) * 100 [4, 10]: 99.48
SMILES: O=C(O)c1ccccc1O [Salicylic Acid]

SMILES: CCC(C)(C)C(=O)O[C@H]1C[C@@H](C)C=C2C=C[C@H](C)[C@H](CC[C@@H]3C[C@@H](O)CC(=O)O3)[C@H]21 [Simvastatin]
change in Apo B compared to baseline [6]: 20.37%
change in LDL compared to baseline [6]: 26.83%
change in Total Cholesterol compared to baseline [6]: 17.95%
